These results are taken from patent US20260286288A1, “REGULATED CELLS EXPRESSING CYTOKINES” (William Marsh Rice University, priority 2023, published 2026).

Usually viability stands for a read-out of living cells in per cent, often relative to untreated cells.

“Also recorded” adds a separate entry of the source.

The test system of assay [1] is RPE-mIL12-ks cells. Conditions: in vitro and in vivo assays of FIGS. 9A-C.
Procedure: (§2) Images of RPE-mIL 12-ks cells via the microscope 24 hours after 0 nM (left) or 10 nM AP1903 (right) administration. […] Cell viability measured after lysing encapsulated RPE-IL12-ks via cell counter 24 hours post administration (n=3).
(§3) FIG. 9A is series of two annotated photographs of two populations of cytokine-producing, kill switch-inducible cells, the first population (left) not having been exposed to small molecule kill switch inducer AP1903, and the second population (right) 24 hours after exposure to 10 nM AP1903. FIG. 9B is the administration of different concentrations of CID (AP1903) in mIL 12 ks cells in a 24-well plate for 24 hours. […] FIG. 9C is the validation of AP1903 treatment in inducing encapsulated cell death in mice. The inventors implant 50 mIL12 ks capsules in each mouse and administrate half of the mice with AP1903 right after implantation surgeries. Euthanize all the mice after 24 hours, retrieve capsules and lysis capsules for measuring cell viability.
For assay [2], the system named is encapsulated IL2-ks cells. Kind of assay: Viability of explanted IL2-ks capsules with or without intraperitoneal AP1903.
Assay [3] concerns RPE-mIL12-ks cells. Nature of the assay: cells. Conditions: 24 h, read-out: cell death.
Procedure: as §2, §3
Assay [4] concerns Encapsulated IL2-ks cells. Nature of the assay: mIL-2 ELISA of capsule supernatant of encapsulated IL2-ks cells after AP1903. The assay is classed as cell-based. Conditions: 10 nM, 100 nM or 1000 nM AP1903, alginate-encapsulated cells. The protocol: FIG. 3A and FIG. 3B are graphs of mIL-2 concentration (pg/mL) over time of four alginate-encapsulated, cytokine-producing, kill switch-inducible cell populations exposed to 0 nM, 10 nM, 100 nM, and 1000 nM of small molecule kill switch inducer AP1903.
(§1) Images were acquired at 20× magnification.
Background: An ELISA detects its analyte on a solid surface through an enzyme-linked reagent.

Assay [5] concerns encapsulated IL12-ks cells. Nature of the assay: AP1903-induced encapsulated cell death of mIL12 ks capsules in mice. It counts as in vivo. An excerpt:
FIG. 9A is an in vitro assay. […] FIG. 9B is an in vitro assay. […] FIG. 9C is an in vivo assay.

Assay [6] has as its system IL2-ks cells (cells expressing IL-2 and an inducible kill switch). Kind of assay: IL-2 ELISA of IL2-ks cell supernatant after AP1903. It counts as cell-based. The protocol: FIG. 2 is a graph of mIL-2 concentration (pg/mL) of the two cell populations of FIG. 1, the first population (right) not having been exposed to AP1903 and the second population (left) less than 24 hours after exposure to 100 nM AP1903.
FIG. 7A and FIG. 7B are graphs of IL-2 concentration (pg/mL) over time of four alginate-encapsulated, cytokine-producing, kill switch-inducible cell populations exposed to 0 nM, 10 nM, 100 nM, and 1000 nM of small molecule kill switch inducer AP1903.
as §1

Assay [7] has the same test system. Nature of the assay: Bright field imaging of IL2-ks cells after AP1903. The assay is classed as cell-based. Conditions: 100 nM AP1903, 18 hours after administration.
From the text: as §1

Take `CC[C@H](C(=O)N1CCCC[C@H]1C(=O)O[C@H](CCc1ccc(OC)c(OC)c1)c1cccc(OCC(=O)NCCNC(=O)COc2cccc([C@@H](CCc3ccc(OC)c(OC)c3)OC(=O)[C@@H]3CCCCN3C(=O)[C@@H](CC)c3cc(OC)c(OC)c(OC)c3)c2)c1)c1cc(OC)c(OC)c(OC)c1` [AP1903]: in the assay on RPE-mIL12-ks cells [1], the “induction of cell death in RPE-mIL 12-ks cells” value is “highly effective at inducing cell death”. Besides, in assay [2] (0.4 mg/mL AP1903, healthy mice), the “time for encapsulated IL2-ks cells to respond to AP1903” value is on record as “less than 16 hours”. Besides, the viability at 400 µg/mL in assay [2] (Mus musculus, ip, read-out: viability of explanted capsules (live)) was less than 10%. For the same compound, in the assay with RPE-mIL12-ks cells [3], the cytotoxicity at 0.01 µM was determined as 99%. The “mIL-2 concentration over time from capsule supernatant” value in assay [4] is “IL-2 production was reduced; also recorded: decreased mIL-2 production”. Moreover, in assay [5] (0.4 mg/mL AP1903, healthy mice, n=3), the “time for encapsulated IL12-ks cells to respond to AP1903” value is “less than 24 hours”. Besides, in assay [5] (AP1903 right after implantation of 50 capsules, 24 hours, compared to control mice), the “cell viability of retrieved capsules” value is “decreased cell viability”. Also, the “IL-2 concentration from cell supernatant” value in assay [6] (10 nM, 100 nM or 1000 nM AP1903, 3 hours after administration) is “significant reduction in cytokine production”. For the same compound, in assay [6] (100 nM AP1903, 18 hours after administration, n=3 wells), the “mIL-2 concentration from cell supernatant” value is “significant reduction in cytokine production; also recorded: decreased mIL-2 production”. Further, the “cell death (bright field images)” value in assay [7] was “induced cell death”.
